This note sets out measurements from ChEMBL document CHEMBL3400096, “6,7-Dihydrobenzo[f]benzo[4,5]imidazo[1,2-d][1,4]oxazepine derivatives as selective inhibitors of PI3Kα” (Bioorg Med Chem, 2015).

Common to all, as to type: functional, cell-based
The subject of one assay is A549. Put plainly: Antiproliferative activity against human A549 cells assessed as inhibition of absorbance after 72 hrs by MTT assay. The note with it: A549, 72 h. Background: Formazan colour is commonly taken as a measure of viable cells.
Assay [1] is described as follows: Antiproliferative activity against human HCT116 cells assessed as inhibition of absorbance after 72 hrs by MTT assay. The note with it: HCT-116, 72 h.
Assay [2] in a line: Antiproliferative activity against human HL60 cells assessed as inhibition of absorbance after 72 hrs by MTT assay. As to conditions: HL-60, 72 h.
Assay [3] can be described thus: Antiproliferative activity against human HuH7 cells assessed as inhibition of absorbance after 72 hrs by MTT assay. The note with it: Huh-7, 72 h.

A word on the IC50: it is the midpoint of a concentration-inhibition curve. On to `FC(F)(F)c1ccc2c(c1)nc1n2CCOc2ccc(Cl)cc2-1`, for which the concentration for half-maximal inhibition (IC50) in the assay on A549 was found to be 38.3 µM; in assay [1], 34.7 µM; in assay [2], 38 µM; in assay [3], 42.3 µM.

Turning to `Clc1ccc2c(c1)nc1n2CCOc2ccccc2-1`, the IC50 in the assay on A549 amounted to 77.3 µM; in assay [1] it was 71.5 µM; in assay [2], 73.8 µM; in assay [3], 80.3 µM.

Turning to `Brc1ccc2c(c1)-c1nc3ccccc3n1CCO2`, the IC50 with A549 is 128 µM; in assay [1], 98.5 µM; in assay [2], 103 µM; in assay [3], 132 µM.

Consider `Cc1ccc2c(c1)nc1n2CCOc2ccccc2-1`, for which the IC50 amounted to 83.7 µM in the assay on A549, 73.5 µM in assay [1], 75.2 µM in assay [2] and 82.6 µM in assay [3].

Turning to `Cc1ccc2c(c1)nc1n2CCOc2ccc(Br)cc2-1`, the IC50 in the assay on A549 was determined as 92.8 µM; in assay [1] it was 80.1 µM; in assay [2], 88.6 µM; in assay [3], 97.4 µM.

Consider `Brc1ccc2c(c1)nc1n2CCOc2ccccc2-1`, for which the IC50 with A549 was 49.5 µM; in assay [1], 43.9 µM; in assay [2] it was 44.3 µM; in assay [3], 58.5 µM.

For the compound `Clc1ccc2c(c1)-c1nc3ccccc3n1CCO2`, the half-inhibitory concentration (IC50) with A549 was 108 µM; in assay [1] it was 87.7 µM; in assay [2] it was 91.3 µM; in assay [3] it was 92.5 µM.

As to `O=[N+]([O-])c1ccc2c(c1)nc1n2CCOc2ccc(Br)cc2-1`, the IC50 was 22 µM with A549, 19 µM in assay [1], 17.5 µM in assay [2] and 24.3 µM in assay [3].

On to `Cc1ccc2c(c1)nc1n2CCOc2ccc(Cl)cc2-1`, for which the half-maximal inhibitory concentration (IC50) was determined as 61.6 µM in the assay on A549, 58.2 µM in assay [1], 57.4 µM in assay [2] and 63.4 µM in assay [3].

In the case of `FC(F)(F)c1ccc2c(c1)nc1n2CCOc2ccccc2-1`, the IC50 in the assay on A549 turned out to be 11.5 µM; in assay [1] it was 13.8 µM; in assay [2], 10.1 µM; in assay [3], 18.7 µM.

`O=[N+]([O-])c1ccc2c(c1)nc1n2CCOc2ccccc2-1`: the IC50 with A549 stood at 122 µM; in assay [1] it was 91 µM; in assay [2], 94.5 µM; in assay [3] it was 105 µM.

As for `Cc1ccc2c(c1)-c1nc3cc(Cl)ccc3n1CCO2`, the half-maximal inhibitory concentration (IC50) came to 55.6 µM with A549, 46.4 µM in assay [1], 51.6 µM in assay [2] and 64.5 µM in assay [3].

Take `FC(F)(F)c1ccc2c(c1)nc1n2CCOc2ccc(Br)cc2-1`: the IC50 is 68.5 µM with A549, 60.6 µM in assay [1], 66.4 µM in assay [2] and 69.7 µM in assay [3].

In the case of `Clc1ccc2c(c1)-c1nc3cc(Br)ccc3n1CCO2`, the IC50 is 74.1 µM in the assay on A549, 64.4 µM in assay [1], 66.7 µM in assay [2] and 72.1 µM in assay [3].

Regarding `c1ccc2c(c1)OCCn1c-2nc2ccccc21`, the IC50 with A549 worked out at 133 µM; in assay [1], 101 µM; in assay [2], 108 µM; in assay [3] it was 124 µM.

For the compound `O=[N+]([O-])c1ccc2c(c1)nc1n2CCOc2ccc(Cl)cc2-1`, the IC50 in the assay with A549 stood at 28.3 µM; in assay [1], 28.4 µM; in assay [2], 32.9 µM; in assay [3], 20.1 µM.

On to `Fc1ccc2c(c1)nc1n2CCOc2ccccc2-1`, for which the concentration for half-maximal inhibition (IC50) in the assay with A549 turned out to be 89.4 µM; in assay [1], 76.5 µM; in assay [2], 82.5 µM; in assay [3], 91.9 µM.

On to `Cc1ccc2c(c1)-c1nc3ccccc3n1CCO2`, for which the IC50 with A549 was 148 µM; in assay [1] it was 112 µM; in assay [2], 122 µM; in assay [3], 144 µM.
